Test results reported in patent publication US5198461A, “Isatine derivatives, their preparation and use” (NeuroSearch A/S, priority 1989, dated 1993).

Key:
[1] = molecular target: 3H-kainate, 3H-AMPA and/or 3H-glycine binding sites; experiment: Kainate, quisqualate (3H-AMPA) and glycine binding assays; settings: site(s) not specified per compound ('and/or')
Experimental: The quisqualate binding assay was performed as described by T. Honore et al., Neuroscience Letters 54, 27-32 (1985).
The kainate binding assay was performed as described by T. Honore et al., Neuroscience Letters 65, 47-52 (1986).
The glycine binding assay was performed as described by W. Frost White et al., Journal of Neurochemistry 53(2), 503-512 (1989).

[2] = test system: ATPA-induced rigidity in female NMRI mice; experiment: ATPA-induced rigidity; assay type: in vivo; settings: Mus musculus, 15 mg/kg ATPA i.v., test compound i.v. or p.o., read-out: ED50, inhibition of ATPA-induced rigidity
Experimental: The selective quisqualate receptor agonist ATPA induces rigidity in female NMRI mice at doses between 3 and 15 mg/kg and clonic-tonic seizures and death, probably due to respiratory arrest, at doses between 15 and 40 mg/kg after intravenous (i.v.) administration.
ATPA ((RS)-α-amino-3-hydroxy-5-tert-butyl-4-isoxazolepropionic acid) was dissolved in distilled water and test compound was dissolved in a polyoxyl 40 hydrogenated castor oil (5% Cremophor RH™ 40 (BASF)).
Test compound was administered either i.v. 5, 30 or 120 min before or p.o. 30 min before an i.v. administration of 15 mg/kg of ATPA to 8 female NMRI mice per dose and the number of mice experiencing rigidity 5 min later was noted. An ED50 value was calculated from at least three doses of test compound as the dose inhibiting 50% of the mice from having rigidity.

[3] = test system: quisqualate-induced clonic seizures in male DBA/2 mice; experiment: Quisqualate-induced clonic seizures; assay type: in vivo; settings: Mus musculus, iv, quisqualate icv, test compound i.v. 5 min before, given as 'quisqualate or NMDA-induced convulsions', read-out: ED50, inhibition of quisqualate-induced convulsions
Experimental: Quisqualate given icv (intracerebroventricular) to DBA/2 mice induces clonic seizures which can be inhibited by both NMDA and non-NMDA receptor antagonists after i.v. administration.
Test compound was given i.v. 5 min before a 20 pg icv administration of quisqualate to 10 male DBA/2 mice (weighing 10-12 g) per dose. The number of mice experiencing clonic seizures within the next 2 min was noted. An ED50 value was calculated as the dose inhibiting 50% of the mice from having clonic seizures.

[4] = test system: NMDA-induced clonic seizures in male NMRI mice; experiment: NMDA-induced clonic seizures; assay type: in vivo; settings: Mus musculus, iv, NMDA icv, test compound i.v. 5 min before, given as 'quisqualate or NMDA-induced convulsions', read-out: ED50, inhibition of NMDA-induced convulsions
Experimental: NMDA give icv to NMRI mice induces clonic seizures which can be inhibited by NMDA receptor antagonists.
Test compound was given i.v. 5 min before a 0.5 μg icv administration of NMDA to 10 male NMRI mice per dose. The number of mice experiencing clonic seizures within the next 2 min was noted. An ED50 value was calculated as the dose inhibiting 50% of the mice from having clonic seizures.

[5] = test system: cocaine-induced hypermotility in female NMRI mice; experiment: Cocaine-induced hypermotility; assay type: in vivo; settings: Mus musculus, po, administered orally, 25 mg/kg cocaine i.p., read-out: ED50, antagonism of cocaine-induced hypermotility
Text: Quisqualate and kainate administered locally induce an increase in dopamine release in nucleus accumbens and nucleus caudatus accompanied by stereotype behaviour such as hyperlocomotion, rearing, sniffing and grooming. These effects can be inhibited by selective quisqualate antagonists administered locally by the micro-dialyses method.
Also the dopamine uptake inhibitor cocaine administered s.c. induce hypermotility which can be inhibited by an administration of the glutamate antagonist GDEE into nucleus accumbens.
Test compound was administered orally at doses of 0.1, 1, 10 and 30 mg/kg 30 min before the administration of 25 mg/kg cocaine i.p. to female NMRI mice and the locomotor activity of 2 mice per box was measured for the next 2 hours by use of 8 infrared photobeams per box. The mice had been adapted to the box for at least 16 hours to avoid exploratory motility (neophobia).

## O=C1Nc2c(cc([N+](=O)[O-])cc2[N+](=O)[O-])C1=NO [5,7-dinitro-1H-indole-2,3-dione-3-oxime]
[1]
  IC50: 10 to 100 µM

## CCOC(=O)CN1C(=O)C(=NOC)c2cc([N+](=O)[O-])cc([N+](=O)[O-])c21 [5,7-dinitro-1-(ethoxycarbonylmethyl)-1H-indole-2,3-dione-3-(O-methyloxime)]
[2]
  ED50: 0.1 to 10 mg/kg
[3]
  ED50: 0.1 to 10 mg/kg
[4]
  ED50: 0.1 to 10 mg/kg

## CN1C(=O)C(=NO)c2cc([N+](=O)[O-])cc([N+](=O)[O-])c21 [5,7-dinitro-1-methyl-1H-indole-2,3-dione-3-oxime]
[1]
  IC50: 10 to 100 µM

## O=C1Nc2c(cc([N+](=O)[O-])c3c2CCCC3)C1=NO [5-nitro-1H-6,7,8,9-tetrahydro-benz[g]indole-2,3-dione-3-oxime]
[1]
  IC50: 10 to 100 µM

## O=C1Nc2c(cc([N+](=O)[O-])c3ccccc23)C1=NO [5-nitro-1H-benz[g]indole-2,3-dione-3-oxime]
[1]
  IC50: 10 to 100 µM

## O=C1Nc2c(ccc3ccccc23)C1=NO [1H-benz[g]indole-2,3-dione-3-oxime]
[1]
  IC50: 10 to 100 µM

## CNS(=O)(=O)c1cc2c(c3c1CCCC3)NC(=O)C2=NO [5-(N-methylsulphamoyl)-6,7,8,9-tetrahydro-1H-benz[g]indole-2,3-dione-3-oxime]
[1]
  IC50: 10 to 100 µM

## O=C1Nc2c(cc(Br)cc2[N+](=O)[O-])C1=NO [5-bromo-7-nitro-1H-indole-2,3-dione-3-oxime]
[1]
  IC50: 10 to 100 µM

## O=C1Nc2ccc([N+](=O)[O-])cc2C1=NO [5-nitro-1H-indole-2,3-dione-3-oxime]
[1]
  IC50: 10 to 100 µM

## CON=C1C(=O)N(C)c2c1cc([N+](=O)[O-])cc2[N+](=O)[O-] [5,7-dinitro-1-methyl-1H-indole-2,3-dione-3-(O-methyloxime)]
[2]
  ED50: 0.1 to 10 mg/kg
[3]
  ED50: 0.1 to 10 mg/kg
[4]
  ED50: 0.1 to 10 mg/kg
[5]
  ED50: 0.5 to 1 mg/kg

## O=C1Nc2c(cc(S(=O)(=O)NOCc3ccccc3)c3c2CCCC3)C1=NO [5-(benzyloxysulphamoyl)-6,7,8,9-tetrahydro-1H-benz[g]indole-2,3-dione-3-oxime]
[1]
  IC50: 10 to 100 µM
